The results in this text go back to article PMC4231056, “Dihydroflavonol 4-Reductase Genes Encode Enzymes with Contrasting Substrate Specificity and Show Divergent Gene Expression Profiles in Fragaria Species” (PLoS ONE, 2014).

The target of data set [1] is T1, DFR1s (recombinant, F. vesca) (Fragaria vesca, UniProt A0A0A0PTI9).
T1 construct: gene DFR; full-length ORF, 333 residues; expressed in yeast from pYES vector; not purified; result stated for all clones together
T1 sequence (A0A0A0PTI9 1-333): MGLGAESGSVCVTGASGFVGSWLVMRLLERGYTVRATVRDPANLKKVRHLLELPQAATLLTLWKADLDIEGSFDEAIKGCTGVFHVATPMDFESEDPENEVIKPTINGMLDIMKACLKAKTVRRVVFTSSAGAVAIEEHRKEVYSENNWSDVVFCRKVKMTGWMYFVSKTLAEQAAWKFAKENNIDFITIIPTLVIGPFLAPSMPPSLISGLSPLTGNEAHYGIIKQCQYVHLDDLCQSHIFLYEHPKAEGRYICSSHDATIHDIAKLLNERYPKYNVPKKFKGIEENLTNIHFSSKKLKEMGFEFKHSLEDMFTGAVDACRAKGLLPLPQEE
In words: radiolabelled turnover assay, yeast protein preparation. To be noted: NADPH; labelled compound (14C). In kind it is biochemical.

The target of data set [2] is T2, DFR2s (recombinant, F. vesca) (Fragaria vesca, UniProt A0A0A0PVL5).
T2 construct: gene DFR; full-length ORF, 349 residues; expressed in yeast from pYES vector; not purified; result stated for all clones together
T2 sequence (A0A0A0PVL5 1-349): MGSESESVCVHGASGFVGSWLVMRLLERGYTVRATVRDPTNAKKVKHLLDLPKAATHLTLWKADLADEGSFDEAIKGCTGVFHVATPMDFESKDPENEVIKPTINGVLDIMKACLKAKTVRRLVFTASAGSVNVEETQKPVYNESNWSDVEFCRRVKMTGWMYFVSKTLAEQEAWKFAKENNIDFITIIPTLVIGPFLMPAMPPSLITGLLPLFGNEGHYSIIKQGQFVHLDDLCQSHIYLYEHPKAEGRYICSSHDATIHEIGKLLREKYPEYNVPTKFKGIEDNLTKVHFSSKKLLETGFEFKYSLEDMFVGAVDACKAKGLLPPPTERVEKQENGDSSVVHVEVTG
Described as above. In kind it is biochemical. To be noted: NADPH; labelled compound (14C).

Substrate in data set [3]: O=C1c2c(O)cc(O)cc2O[C@H](c2ccc(O)c(O)c2)[C@H]1O
Description: radiolabelled TLC assay, Lineweaver-Burk, yeast protein preparation. The data set is classed as biochemical, Fragaria x ananassa. To be noted: NADPH; optimised conditions (pH optimum 6.25); labelled compound (14C); K cat is per kg protein, a specific rate. The text has this: (§1) radiolabelled TLC assay, Lineweaver-Burk, yeast protein preparation on DFR2 (recombinant, KC894055)

Substrate in data set [4]: O=C1c2c(O)cc(O)cc2O[C@H](c2cc(O)c(O)c(O)c2)[C@H]1O
The data set is described as above. The data set is classed as biochemical, Fragaria x ananassa. To be noted: NADPH; optimised conditions (pH optimum 5.75); labelled compound (14C); K cat is per kg protein, a specific rate.
Description: as §1

Substrate in data set [5]: O=C1c2c(O)cc(O)cc2O[C@H](c2ccc(O)cc2)[C@H]1O
The data set is described as above. In kind it is biochemical, Fragaria x ananassa. To be noted: NADPH; optimised conditions (pH optimum 6.00); labelled compound (14C); K cat is per kg protein, a specific rate. An excerpt:
radiolabelled TLC assay, Lineweaver-Burk, yeast protein preparation on DFR1 (recombinant, KC894048)

Changes are numbered by the printed parent chain.

Turning to `O=C1c2c(O)cc(O)cc2O[C@H](c2ccc(O)cc2)[C@H]1O` [DHK], in data set [1], the “radiolabelled turnover assay, yeast protein preparation” value is on record as “Recombinant DFR1 s, in contrast, were selective for DHK”. `O=C1c2c(O)cc(O)cc2O[C@H](c2cc(O)c(O)c(O)c2)[C@H]1O` [DHM]: the “radiolabelled turnover assay, yeast protein preparation” value in data set [2] is “The recombinant DFR2s converted DHQ and DHM to leucocyanidin and leucodelphinidin”. Still for that read-out and setting: to `O=C1c2c(O)cc(O)cc2O[C@H](c2ccc(O)c(O)c2)[C@H]1O` [DHQ] belongs “The recombinant DFR2s converted DHQ and DHM to leucocyanidin and leucodelphinidin”.

B1: DFR2 (recombinant, KC894055) (Fragaria x ananassa) (protein)
chain: T2 sequence (A0A0A0PVL5 1-349) with H11T, T79S, L211S, G264A, N337A, S341G
notes: full-length ORF, 349 residues; expressed in yeast INVSc1 from pYES2.1/V5-His-TOPO; reverse primer holds the stop codon; cell protein preparation, not purified
In the case of B1, the Km in data set [3] came out at 0.40 µM; in data set [4] it was 2.3 µM.

B2: DFR1 (recombinant, KC894048) (Fragaria x ananassa) (protein)
chain: MGLGAESGSVCVTGASGFVGSWLVMRLLEHGYTVRATVRDPANLKKVRHLLELPQAATRLTLWKADLDVEGSFDEAIKGCTGVFHVATPMDFESEDPENEVIKPTINGMLDIMKACLKAKTVRRVVFTSSAGAVAIEEHRKEVYSENNWSDVVFCRKVKMTGWMYFVSKTLAEQAAWKFAKENNIDFITIIPTLVIGPFLAPSMPPSLISGLSPLTGNEAHYGIIKQCQYVHLDDLCQSHIFLYEHPKAEGRYICSSHDATIHDIAKLLNEKYPKYNVPKKFKGIEENLTNIHFSSKKLKEMGFEFKHSLEDMFTGAVDACREKGLLPLPQEEETEKRRAG
notes: full-length ORF, 341 residues; expressed in yeast INVSc1 from pYES2.1/V5-His-TOPO; reverse primer starts with the stop codon; cell protein preparation, not purified
With B2, the Km in data set [5] came out at 0.40 µM.
